In US6444434B1, “FVIIa/TF activity inhibiting compounds” (Novo Nordisk A/S, priority 1999, dated 2002):
Like-named read-outs stand apart in the source and are kept apart here.

Columns and labels:
[1] = target: T1, FVIIa/TF-catalyzed activation of FX (Homo sapiens, UniProt P08709); test: FX activation assay (FVIIa/TF-catalyzed FX activation); type: biochemical
T1 construct: Single-chain FVII may be converted to two-chain FVIIa by factor Xa

TF/FVIIa = target: T2, TF/FVIIa (Homo sapiens, UniProt P08709); test: FVIIa/TF amidolytic assay; type: biochemical; details: 10 nM FVIIa, 25 nM soluble TF, 1 mM S-2288
T2 construct: Single-chain FVII may be converted to two-chain FVIIa by factor Xa; 20 microliters of soluble TF (250 nM in buffer)
T2 sequence (P08709 61-212 limits assumed): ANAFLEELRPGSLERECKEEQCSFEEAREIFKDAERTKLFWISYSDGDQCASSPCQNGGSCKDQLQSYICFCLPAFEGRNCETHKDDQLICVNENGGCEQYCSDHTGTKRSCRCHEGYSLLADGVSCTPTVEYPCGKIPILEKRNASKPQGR
T2 sequence (P08709 213-466 limits assumed): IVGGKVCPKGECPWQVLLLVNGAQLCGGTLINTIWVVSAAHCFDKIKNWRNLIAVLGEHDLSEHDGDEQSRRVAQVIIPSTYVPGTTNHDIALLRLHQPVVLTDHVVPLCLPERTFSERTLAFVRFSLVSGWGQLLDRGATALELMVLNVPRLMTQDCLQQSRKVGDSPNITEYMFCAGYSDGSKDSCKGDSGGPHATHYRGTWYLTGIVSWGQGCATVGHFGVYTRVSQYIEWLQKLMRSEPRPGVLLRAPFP
Procedure: (§1) Compound solutions and buffer are the same as in the above FX activation assay. 150 microliters of FVIIa (13.3 nM in buffer), 20 microliters of soluble TF. (250 nM in buffer), 10 microliters of test compound (various concentrations in DMSO) and 20 microliters of substrate S-2288 (10 mM in water) is mixed in microtiter plate well. This gives final concentrations of FVII(a, TF and S-2288 of 10 nM, 25 nM and 1 mM, respectively. The absorbance at 405 nm is measured continuously for 20 minutes. The degree of inhibition is calculated from the slope of the absorbance curve compared to the curve obtained when using DMSO without test compound.
as §1, with “TF” for “TF.”, “DM80)” for “DMSO)”, “FVIIa,” for “FVII(a,”

FXa = FXa (Homo sapiens, UniProt P00742); test: FXa amidolytic assay; type: biochemical; details: 1 nM FXa, 1 mM S-2765; read-out: FX amidolytic IC50 FX
Chain of FXa (P00742 41-179 limits assumed): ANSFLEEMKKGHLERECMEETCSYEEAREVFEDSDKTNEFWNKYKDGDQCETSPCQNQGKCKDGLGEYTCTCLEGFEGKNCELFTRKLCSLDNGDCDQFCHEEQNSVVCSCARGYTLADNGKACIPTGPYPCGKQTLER
Chain of FXa (P00742 235-488 limits assumed): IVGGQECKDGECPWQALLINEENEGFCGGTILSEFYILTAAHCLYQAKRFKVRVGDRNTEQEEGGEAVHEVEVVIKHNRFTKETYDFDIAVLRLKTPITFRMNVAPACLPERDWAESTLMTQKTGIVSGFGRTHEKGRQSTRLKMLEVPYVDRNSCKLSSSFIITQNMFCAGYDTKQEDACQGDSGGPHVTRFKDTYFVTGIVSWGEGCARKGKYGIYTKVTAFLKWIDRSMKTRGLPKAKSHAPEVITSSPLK
Procedure: (§2) Compound solutions and buffer are the same as in the above FX activation assay. 170 microliters of FXa (1.17 nM in buffer), 10 microliters of test compound (various concentrations in DMSO) and 20 microliters of substrate S-2765 (10 mM in water) is mixed in a microtiter plate well. This gives-final concentrations of FXa and S-2765 of 1 nM and 1 mM, respectively. The absorbance at 405 nm is measured continuously for 20 minutes. The degree of inhibition is calculated from the slope of the absorbance curve compared to the curve obtained when using DMSO without test compound.
as §2, with “gives final” for “gives-final”

[2] = tested on: citrated normal human plasma; test: FVIIa/TF-initiated plasma clotting assay; details: ratio of clotting time with/without compound; final compound concentration 0.33 mM; thromboplastin (Innovin)
Procedure: The test compounds, 20 mM in DMSO, are diluted in citrated normal human plasma just before the analysis (1+19) and placed in the sample carousel. 55 μl sample (compound in plasma) is mixed with 55 μl of thromboplastin (Innovin, Dade) and incubated for 5 min. The clotting reaction is started by adding 55 μl of a 25-mM CaCl2 solution, yielding a final compound concentration of 0.33 mM. The clotting time is measured using an ACL 300 R coagulometer. The ratio between the clotting time in the presence and absence of test compound is used to quantify the anticoagulant efficiency.

[3] = target: T3, FVIIa/TF-catalyzed activation of FX (Homo sapiens, UniProt P08709+P13726); test: FX activation assay (FVIIa/TF-catalyzed FX activation); type: biochemical; details: second part of table, Examples 14-22
T3 construct: Single-chain FVII may be converted to two-chain FVIIa by factor Xa
T3 sequence (P13726 33-295, one chain of several): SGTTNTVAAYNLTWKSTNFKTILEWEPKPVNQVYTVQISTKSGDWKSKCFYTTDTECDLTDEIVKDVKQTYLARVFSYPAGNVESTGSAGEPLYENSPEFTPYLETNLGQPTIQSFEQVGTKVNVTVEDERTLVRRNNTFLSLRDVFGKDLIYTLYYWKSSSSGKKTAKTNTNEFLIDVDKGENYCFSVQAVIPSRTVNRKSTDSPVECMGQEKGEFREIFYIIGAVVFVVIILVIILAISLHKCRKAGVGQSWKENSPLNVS

[4] = 100 pM FVIIa, 5 pM TF, 175 nM FX, FXa read with S-2765, read-out: TF/FVII/FX (FX activation) IC50 FXa
[5] = second part of table, Examples 14-22, read-out: IC50 (μM) FX activation by FVIIa/TF

T1 sequence (P13726 33-295, one chain of several, further chain): as the sequence (P13726 33-295, one chain of several) above

## N=c1n(CCN2CCCC2)c2ccccc2n1CC(O)COc1ccc(Cl)cc1 (stereo not drawn) [Example 5, 1-(4-Chloro-phenoxy)-3-[2-imino-3-(2-pyrrolidin-1-yl-ethyl)-2,3-dihydro-benzoimidazol-1-yl]-propan-2-ol]
[1]; [4]
  IC50: 18 µM
TF/FVIIa
  IC50: > 200 µM
FXa
  IC50: > 200 µM
[2]
  Clot ratio: >3

## CN(C)CCNCC(O)CN1CCn2c3c(c4cc(C5CCCCC5)ccc42)CCCC31 (stereo not drawn) [Example 6, 1-(8-Cyclohexyl-1,2,3a,4,5,6-hexahydro-pyrazino[3,2,1-jk]carbazol-3-yl)-3-(2-dimethylamino-ethylamino)-propan-2-ol]
[1]; [4]
  IC50: 17 µM
TF/FVIIa
  IC50: > 200 µM
FXa
  IC50: > 200 µM
[2]
  Clot ratio: >3

## COc1cccc(/C=N\Nc2nc(Nc3ccccc3)nc(Nc3ccc(C)cc3C)n2)c1O [Example 7, 2-{[4-(2,4-Dimethyl-phenylamino)-6-phenylamino-[1,3,5]triazin-2-yl]-hydrazonomethyl}-6-methoxy-phenol]
[1]; [4]
  IC50: 17 µM
TF/FVIIa
  IC50: > 200 µM
FXa
  IC50: > 200 µM
[2]
  Clot ratio: 1.03

## CN1CCN(CC(=O)N2CCn3c4c(c5cc(C6CCCCC6)ccc53)CCCC42)CC1 (stereo not drawn) [Example 8, 1-(8-Cyclohexyl-1,2,3a,4,5,6-hexahydro-pyrazino[3,2,1-jk]carbazol-3-yl)-2-(4-methyl-piperazin-1-yl)-ethanone]
[1]; [4]
  IC50: 14 µM
TF/FVIIa
  IC50: > 200 µM
FXa
  IC50: > 200 µM
[2]
  Clot ratio: 2.72

## CC(C)Cc1ccc(C(C)CNC(=N)C(C)c2ccc(CC(C)C)cc2)cc1 (stereo not drawn) [Example 9, 2-(4-Isobutyl-phenyl)-N-[2-(4-isobutyl-phenyl)-propyl]-propionamidine]
[1]; [4]
  IC50: 11 µM
TF/FVIIa
  IC50: > 200 µM
FXa
  IC50: > 200 µM
[2]
  Clot ratio: >3

## CCCCCCCCCCCCCCCCn1c2c(c(=N)c3c1CCC3)CCC2 [Example 10, 4-Hexadecyl-2,3,4,5,6,7-hexahydro-1H-4-aza-s-indacen-8-ylideneamine]
[1]; [4]
  IC50: 7.7 µM
TF/FVIIa
  IC50: > 200 µM
FXa
  IC50: > 200 µM
[2]
  Clot ratio: 2.84

## CCC(=C(c1ccc(OC)cc1)c1ccc(OC)cc1)c1cn(CC(O)CN2CCCC2)c2ccccc12 (stereo not drawn) [Example 11, 1-{3-[1-Ethyl-2,2-bis-(4-methoxy-phenyl)-vinyl]-indol-1-yl}-3-pyrrolidin-1-yl-propan-2-ol]
[1]; [4]
  IC50: 7.7 µM
TF/FVIIa
  IC50: > 200 µM
FXa
  IC50: > 200 µM
[2]
  Clot ratio: 1.64

## COc1ccc(/C=C2\c3ccccc3-c3ccc(C(=O)CCCCN4CCCCC4)cc32)cc1OC [Example 12, 1-[9-(3,4-Dimethoxy-benzylidene)-9H-fluoren-2-yl]-5-piperidin-1-yl-pentan-1-one]
[1]; [4]
  IC50: 7 µM
TF/FVIIa
  IC50: > 200 µM
FXa
  IC50: > 200 µM
[2]
  Clot ratio: 1.2

## CCCCCCCOc1ccc(/C(=N\C2CC(C)(C)NC(C)(C)C2)c2ccccc2)cc1 [Example 13, [(4-Heptyloxy-phenyl)-phenyl-methylene]-(2,2,6,6-tetramethylpiperidin-4-yl)-amine]
[1]; [4]
  IC50: 5.8 µM
TF/FVIIa
  IC50: > 200 µM
FXa
  IC50: > 200 µM
[2]
  Clot ratio: 2.06

## CCN(CC)CCCC(C)Nc1nc(/C=C/C=C/c2ccccc2)nc2cc(Cl)ccc12 (stereo not drawn) [Example 14, N-[7-chloro-2-(4-phenyl-buta-1,3-dienyl)-quinazolin-4-yl]-5-N,N-diethyl-aminopentane-2-amine]
[1]; [5]
  IC50: < 20 µM

## CCN(CC)CCCC(C)Nc1nc(C=Cc2ccc(Br)cc2Br)nc2cc(Cl)ccc12 (stereo not drawn) [Example 15, N4-{7-chloro-2-[2-(2,4-dibromo-phenyl)-vinyl]-quinazolin-4-yl}-N1,N1-diethyl-pentane-1,4-diamine]
[1]; [5]
  IC50: < 20 µM

## CCN(CC)CCCC(C)Nc1nc(/C=C/c2ccc(Br)cc2)nc2cc(Cl)ccc12 (stereo not drawn) [Example 16, N4-{2-[2-(4-bromo-phenyl)-vinyl]-7-chloro-quinazolin-4-yl}-N1,N1-diethyl-pentane-1,4-diamine]
[1]; [5]
  IC50: < 20 µM

## CN(C)CCCN(C)Cc1cn(Cc2ccc(Cl)c(Cl)c2)c2cc(Cl)c(OCc3ccccc3)cc12 [Example 17, N-[5-benzyloxy-6-chloro-1-(3,4-dichlorobenzyl)-1H-indol-3-ylmethyl]-N,N′N′-trimethylpropan-1,3-diamine]
[1]; [5]
  IC50: < 20 µM

## CN(C)C1CCN(Cc2c[nH]c3ccc(OCc4ccccc4)cc23)CC1 [Example 18, N-[5-benzyloxy-1H-indol-3-ylmethyl]-4-dimethylaminopiperidine]
[1]; [5]
  IC50: < 20 µM

## NC(CC(=O)NC(Cc1c[nH]c2ccccc12)C(=O)O)(P(=O)(O)O)P(=O)(O)O (stereo not drawn) [Example 19, 2-(3-amino-3,3-bis-phosphono-propionylamino)-3-(1H-indol-3-yl)-propionic acid]
[1]; [5]
  IC50: < 20 µM

## CN(C)CCCNC(=O)c1cc2cc(OCc3ccccc3)ccc2n1Cc1ccc(Cl)c(Cl)c1 [Example 20]
[1]; [5]
  IC50: < 20 µM

## CN(C)CCc1cn(Cc2ccc(Cl)c(Cl)c2)c2cc(Cl)c(OCc3ccccc3)cc12 [Example 21, N,N-dimethyl-1-(3,4-dichlorobenzyl)-5-benzyloxy-6-chlorotrypamine]
[3]
  IC50: < 20 µM

## CCC(=C(c1ccc(OC)cc1)c1ccc(OC)cc1)c1cn(CC(O)CN2CCCC2)c2ccccc12 (stereo not drawn) [Example 22, 1-{3-[1-ethyl-2,2-bis-(4-methoxy-phenyl)-vinyl]-indol-1-yl}-3-pyrrolidin-1-yl-propan-2-ol]
[1]; [5]
  IC50: < 20 µM
